Measurements reported in patent publication US20220372585A1, “Sensors for Aromatic Compounds and Methods of Making and Using Same” (Washington University, priority 2021, published 2022).
pEC50: −log10 of the molar value. Several values for one entry are separate records, joined by “and”; a condition that tells them apart may be missing. Equal values may be shown once. Entries after “also recorded” stand apart in the source; their conditions may differ.

Key:
Assay type in all cases: cell-based, E. coli
E274Q+L11G TyrR = molecular target: T1, E274Q+L11G TyrR (Escherichia coli, UniProt P07604, E274Q/L11G); assay: PtyrP-GFP reporter, E274Q+L11G TyrR (pAGR155) in EcN
T1 construct: expressed in transfected cells; host or cells: E. coli Nissle 1917 (EcN), plasmid pAGR155
Description: (§1) Everything but (Eb) medium was prepared by supplementing M9 minimal medium with 1 mM MgSO4, […]), 0.4% w/v glucose, and all non-aromatic amino acids (0.8 mM alanine, 5 mM arginine, 0.4 mM asparagine, 0.4 mM aspartate, 0.1 mM cysteine, 0.6 mM glutamate, 0.6 mM glutamine, 0.8 mM glycine, 0.2 mM histidine, 0.4 mM isoleucine, 0.8 mM leucine, 0.4 mM lysine, 0.2 mM methionine, 0.4 mM proline, 10 mM serine, 0.4 mM threonine, and 0.6 mM valine). […] Experimental cultures were prepared by diluting overnight cultures 200× into 0.6 mL fresh Eb medium supplemented with the respective ligands (Phe and Tyr) in 2 mL 96-deep well plates (Eppendorf, Hamburg, Germany). Cultures were grown for 8 h at 37° C. and 250 rpm before sampled for fluorimetry or flow cytometry analysis. All medium was supplemented with the relevant antibiotics for plasmid maintenance (34 mg/ml chloramphenicol and 100 mg/ml spectinomycin).
(§2) […] culture samples were collected and transferred to 96-well assay microplates (clear, flat bottom black, Greiner Bio-One). The fluorescence and culture absorbance (Abs) were measured using a Tecan microplate reader (Infinite M200 Pro) as previously described. The fluorescence of GFP was measured with an excitation at 483 nm and emission at 530 nm. The Abs of the samples was measured at 600 nm. The measured fluorescence was normalized by dividing by the Abs and subtracting the same ratio obtained from non-fluorescent wild-type cells (Equation 1).
(§3) Flow cytometry was performed as previously described. […] Cytometry data was gated by forward and side scatter.

E274Q+D103H TyrR = molecular target: T2, E274Q+D103H TyrR (Escherichia coli, UniProt P07604, D103H/E274Q); assay: PtyrP-GFP reporter, E274Q+D103H TyrR (pAGR158) in EcN
T2 construct: expressed in transfected cells; host or cells: E. coli Nissle 1917 (EcN), plasmid pAGR158
Description: as §1, §2, §3

E274Q+T14G TyrR = molecular target: T3, E274Q+T14G TyrR (Escherichia coli, UniProt P07604, E274Q/T14G); assay: PtyrP-GFP reporter, E274Q+T14G TyrR (pAGR156) in EcN
T3 construct: expressed in transfected cells; host or cells: E. coli Nissle 1917 (EcN), plasmid pAGR156
Description: as §1, §2, §3

wild-type TyrR = molecular target: T4, wild-type TyrR (Escherichia coli, UniProt P07604); assay: cell-based
T4 construct: tyrR (WT); expressed in transfected cells; host or cells: E. coli Nissle 1917 (EcN)
Description: as §1, §2, §3

E274Q+T14V TyrR = molecular target: T5, E274Q+T14V TyrR (Escherichia coli, UniProt P07604, E274Q/T14V); assay: cell-based
T5 construct: expressed in transfected cells; host or cells: E. coli Nissle 1917 (EcN), plasmid pAGR157
Description: as §1, §2, §3

R10F TyrR = molecular target: T6, R10F TyrR (Escherichia coli, UniProt P07604, R10F); assay: cell-based; conditions: ligand alone, listed as Phe
T6 construct: expressed in transfected cells; host or cells: E. coli Nissle 1917 (EcN), plasmid pAGR473
Description: as §1, §2, §3

E274Q+D103S TyrR = molecular target: T7, E274Q+D103S TyrR (Escherichia coli, UniProt P07604, D103S/E274Q); assay: cell-based
T7 construct: expressed in transfected cells; host or cells: E. coli Nissle 1917 (EcN), plasmid pAGR159
Description: as §1, §2, §3

E274Q TyrR = molecular target: T8, E274Q TyrR (Escherichia coli, UniProt P07604, E274Q); assay: cell-based
T8 construct: expressed in transfected cells; host or cells: E. coli Nissle 1917 (EcN), plasmid pAGR102
Description: as §1, §2, §3

E274Q+C7V TyrR = molecular target: T9, E274Q+C7V TyrR (Escherichia coli, UniProt P07604, C7V/E274Q); assay: PtyrP-GFP reporter, E274Q+C7V TyrR (pAGR160) in EcN
T9 construct: expressed in transfected cells; host or cells: E. coli Nissle 1917 (EcN), plasmid pAGR160
Description: as §1, §2, §3

[1] = molecular target: T10, E274Q TyrR with T14V and D103S combined (Escherichia coli, UniProt P07604, D103S/E274Q/T14V); assay: PtyrP-GFP reporter, E274Q TyrR with both T14V and D103S mutations combined; conditions: both mutations (T14V, D103S) combined in E274Q TyrR
T10 construct: tyrR (WT); expressed in transfected cells; host or cells: E. coli Nissle 1917 (EcN)
Description: as §1, with “All medium was supplemented with the relevant antibiotics for plasmid maintenance (34 mg/ml chloramphenicol and 100 mg/ml spectinomycin).” left out
200 mL culture samples were collected and transferred to 96-well assay microplates (clear, flat bottom black, Greiner Bio-One). The fluorescence and culture absorbance (Abs) were measured using a Tecan microplate reader (Infinite M200 Pro) as previously described. The fluorescence of GFP was measured with an excitation at 483 nm and emission at 530 nm. The Abs of the samples was measured at 600 nm. The measured fluorescence was normalized by dividing by the Abs and subtracting the same ratio obtained from non-fluorescent wild-type cells (Equation 1). […]

[2] = E274Q+L11G TyrR, pAGR155, FIG. 10B, 8 h
[3] = E274Q+D103H TyrR, pAGR158, FIG. 10D, 8 h
[4] = E274Q+T14G TyrR, pAGR156, FIG. 10C, 8 h
[5] = wild-type TyrR, pAGR010, FIG. 1C, 8 h
[6] = E274Q+C7V TyrR, pAGR160, FIG. 10A, 8 h

T8 sequence (P07604 whole entry E274Q): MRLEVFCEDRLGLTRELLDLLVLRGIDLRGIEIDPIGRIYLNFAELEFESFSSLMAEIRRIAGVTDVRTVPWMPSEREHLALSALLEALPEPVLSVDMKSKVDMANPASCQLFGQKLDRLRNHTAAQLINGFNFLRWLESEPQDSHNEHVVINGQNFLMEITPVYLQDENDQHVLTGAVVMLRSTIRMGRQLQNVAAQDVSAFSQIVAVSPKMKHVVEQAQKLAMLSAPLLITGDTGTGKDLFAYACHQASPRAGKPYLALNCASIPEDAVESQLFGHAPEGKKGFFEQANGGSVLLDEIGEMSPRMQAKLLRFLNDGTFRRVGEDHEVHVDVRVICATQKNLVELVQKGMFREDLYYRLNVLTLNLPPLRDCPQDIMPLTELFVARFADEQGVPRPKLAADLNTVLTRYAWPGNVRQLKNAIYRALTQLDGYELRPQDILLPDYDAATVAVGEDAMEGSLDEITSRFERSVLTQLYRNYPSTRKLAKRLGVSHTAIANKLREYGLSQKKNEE
T7 sequence (P07604 whole entry D103S/E274Q): as the sequence (P07604 whole entry E274Q) above, with D103S counted along it
T4 sequence (P07604 whole entry): as the sequence (P07604 whole entry E274Q) above, with Q274E counted along it
T2 sequence (P07604 whole entry D103H/E274Q): as the sequence (P07604 whole entry E274Q) above, with D103H counted along it
T1 sequence (P07604 whole entry L11G/E274Q): as the sequence (P07604 whole entry E274Q) above, with L11G counted along it
T3 sequence (P07604 whole entry T14G/E274Q): as the sequence (P07604 whole entry E274Q) above, with T14G counted along it
T9 sequence (P07604 whole entry C7V/E274Q): as the sequence (P07604 whole entry E274Q) above, with C7V counted along it
T5 sequence (P07604 whole entry T14V/E274Q): as the sequence (P07604 whole entry E274Q) above, with T14V counted along it
T6 sequence (P07604 whole entry R10F): as the sequence (P07604 whole entry E274Q) above, with R10F, Q274E counted along it
T10 sequence (P07604 whole entry T14V/D103S/E274Q): as the sequence (P07604 whole entry E274Q) above, with T14V, D103S counted along it

**Q.** How did the pEC50 (E274Q+L11G TyrR) turn out when `N[C@@H](Cc1ccccc1)C(=O)O` [Phenylalanine, phenylalanine] was run?
**A.** The pEC50 was 4.35.

**Q.** And the Fmax (E274Q+L11G TyrR; [2])?
**A.** Its Fmax is 12900.

**Q.** And the Fmin (E274Q+L11G TyrR; [2])?
**A.** The Fmin was 5570.

**Q.** What about the “n (Hill coefficient)” value (E274Q+L11G TyrR; [2]) of the same molecule?
**A.** The value was 2.2.

**Q.** What about the pEC50 (E274Q+D103H TyrR) of the same molecule?
**A.** Its pEC50 is 3.96.

**Q.** And the Fmax (E274Q+D103H TyrR; [3])?
**A.** The Fmax was 11800.

**Q.** And the Fmin (E274Q+D103H TyrR; [3])?
**A.** Its Fmin is 2150.

**Q.** What about the “n (Hill coefficient)” value (E274Q+D103H TyrR; [3]) of the same molecule?
**A.** The value was 1.

**Q.** And the pEC50 (E274Q+T14G TyrR)?
**A.** The pEC50 was 4.43.

**Q.** And the Fmax (E274Q+T14G TyrR; [4])?
**A.** The Fmax was 12400.

**Q.** What about the Fmin (E274Q+T14G TyrR; [4]) of the same molecule?
**A.** Its Fmin is 1430.

**Q.** What about the “n (Hill coefficient)” value (E274Q+T14G TyrR; [4]) of the same molecule?
**A.** The value was 2.4.

**Q.** What about the “fold induction of PtyrP” value (wild-type TyrR; overexpression of wild-type TyrR) of the same molecule?
**A.** Its value is 4 fold.

**Q.** And the Fmax (wild-type TyrR; [5])?
**A.** Its Fmax is 10500.

**Q.** And the Fmin (wild-type TyrR; [5])?
**A.** Its Fmin is 2900.

**Q.** What about the “n (Hill coefficient)” value (wild-type TyrR; [5]) of the same molecule?
**A.** The value was 5.5.

**Q.** And the pEC50 (wild-type TyrR; wild-type TyrR, pAGR010, FIG. 1C, 8 h, read-out: KA (half maximal constant))?
**A.** Its pEC50 is 4.14.

**Q.** And the pEC50 (E274Q+T14V TyrR; KA (half maximal constant), pAGR157, FIG. 2C, 2E, 8 h)?
**A.** Its pEC50 is 4.10 and 4.08.

**Q.** And the “KA relative to the E274Q mutant” value (E274Q+T14V TyrR; higher than E274Q)?
**A.** Its value is 2 fold.

**Q.** What about the Fmax (E274Q+T14V TyrR; pAGR157, FIG. 2C, 2E, 8 h) of the same molecule?
**A.** The Fmax was 7560.

**Q.** What about the Fmin (E274Q+T14V TyrR; pAGR157, FIG. 2C, 2E, 8 h) of the same molecule?
**A.** The Fmin was 814.

**Q.** And the “n (Hill coefficient)” value (E274Q+T14V TyrR; pAGR157, FIG. 2C, 2E, 8 h)?
**A.** Its value is 1.4.

**Q.** And the “response of PtyrP” value (R10F TyrR)?
**A.** The value was “lack of response; also recorded: no significant response”.

**Q.** What about the pEC50 (E274Q+D103S TyrR; KA (half maximal constant), pAGR159, FIG. 2C, 2F, 8 h) of the same molecule?
**A.** Its pEC50 is 3.89.

**Q.** What about the “KA relative to the E274Q mutant” value (E274Q+D103S TyrR; higher than E274Q) of the same molecule?
**A.** Its value is 3 fold.

**Q.** What about the Fmax (E274Q+D103S TyrR; pAGR159, FIG. 2C, 2F, 8 h) of the same molecule?
**A.** Its Fmax is 10700.

**Q.** And the Fmin (E274Q+D103S TyrR; pAGR159, FIG. 2C, 2F, 8 h)?
**A.** The Fmin was 1310.

**Q.** What about the “n (Hill coefficient)” value (E274Q+D103S TyrR; pAGR159, FIG. 2C, 2F, 8 h) of the same molecule?
**A.** The value was 0.7.

**Q.** And the “fold induction of PtyrP” value (E274Q TyrR)?
**A.** Its value is 16 fold.

**Q.** And the pEC50 (E274Q TyrR; KA (half maximal constant), pAGR102, FIG. 2C, 2D, 8 h)?
**A.** The pEC50 was 4.40 and 4.38.

**Q.** And the Fmax (E274Q TyrR; pAGR102, FIG. 2C, 2D, 8 h)?
**A.** Its Fmax is 12800.

**Q.** What about the Fmin (E274Q TyrR; pAGR102, FIG. 2C, 2D, 8 h) of the same molecule?
**A.** Its Fmin is 982.

**Q.** And the “n (Hill coefficient)” value (E274Q TyrR; pAGR102, FIG. 2C, 2D, 8 h)?
**A.** The value was 2.

**Q.** And the pEC50 (E274Q+C7V TyrR)?
**A.** Its pEC50 is 4.34.

**Q.** What about the Fmax (E274Q+C7V TyrR; [6]) of the same molecule?
**A.** The Fmax was 10800.

**Q.** What about the Fmin (E274Q+C7V TyrR; [6]) of the same molecule?
**A.** The Fmin was 1120.

**Q.** What about the “n (Hill coefficient)” value (E274Q+C7V TyrR; [6]) of the same molecule?
**A.** Its value is 2.5.

**Q.** And the “response of PtyrP” value [1]?
**A.** The value was “eliminated”.
